Measured values published in patent publication US20240165276A1, “SELECTIVE LIGANDS FOR TAU AGGREGATES” (KARIN & STEN MORTSTEDT CBD SOLUTIONS AB, priority 2019, published 2024).
Where two headings read alike, the source gives them in different places.

Legend:
[1] = target: recombinant 0N4R Tau fibrils (Homo sapiens (Human), UniProt P10636); assay: ^3H-THK5117 competition binding to tau fibrils in vitro; conditions: for IC50: competition with 3 nM [^3H]-THK5117, 0N4R tau fibrils, 1 h, 22° C., average if run more than once
Procedure: (§1) ^3H-THK5117 Competition Binding to Tau Fibrils In Vitro
(§2) Preparation of recombinant 0N4R Tau fibrils was performed as previously described in Morozova, O. A., Biochemistry (2013), Vol., 52(40), pages 6960-6967. Competition binding experiments to 0N4R Tau fibrils were performed by incubating increasing concentrations [10^−10-10^−6 M] of the Example compounds of the invention, or the known tau specific ligand PBB3 (PBB3 was synthesized as previously described in M. Maruyama, et al, Neuron 2013, 79, 1094-1108) or MK6240 (Novandi Chemistry AB), in the presence of 3 nM of the known tau ligand [^3H]-THK5117 (Novandi Chemistry) and 0.2 mM 0N4R tau fibrils in binding buffer (50 mM Tris-HCl, pH 7.4, 0.1% BSA) for 1 h in the dark, and at 22° C. The incubation was terminated by filtration through a Whatman GF/B glass filter (Whatman International, Kent, UK) using a Brandel cell harvester. The filter was then washed rapidly four times with 3 mL of ice-cold wash buffer (5 mM Tris-HCl, 0.25 mM NaCl, 5% EtOH), and equilibrated for 1 h in scintillation vials containing 5 mL of Ultima Gold scintillation fluid before being analysed using a Liquid Scintillation Analyzer.
(§3) The results are shown in Table 2 in the column labeled “Tau IC50”.
(§4) Relative Selectivity for Tau vs. Aβ
(§5) Relative selectivity for tau compared to Aβ for the exemplified compounds was calculated using the results for the [^3H]-THK5117 tau and [^3H]-AZD2184 Aβ assays described above. The calculated results are shown in Table 2 in the column labeled “Selectivity for tau relative to Aβ”.

[2] = tested on: recombinant 0N4R Tau fibrils; assay: as above; conditions: calculated from [^3H]-THK5117 tau and [^3H]-AZD2184 Aβ assay results
Procedure: as §1, §2, §3, §4, §5

Aβ(1-42) amyloid fibrils = Aβ(1-42) amyloid fibrils (Homo sapiens, UniProt P05067); assay: ^3H-AZD2184 competition binding to Aβ(1-42) fibrils in vitro; conditions: competition with [^3H]-AZD2184, Aβ(1-42) amyloid fibrils; average if run more than once
Procedure: ^3H-AZD2184 Competition Binding to Aβ(1-42) Fibrils In Vitro
Competition binding experiments to Aβ(1-42) amyloid fibrils were performed as previously described in Jureus, A., et al, Journal of Neurochemistry (2010), Vol. 114, pages 784-794 for the Example compounds of the invention indicated in Table 2, or the known tau specific ligand PBB3 (PBB3 was synthesized as previously described in M. Maruyama, et al, Neuron 2013, 79, 1094-1108).
The results are shown in Table 2 in the column labeled “Aβ IC50”.

[3] = cited from earlier work

Sequence of recombinant 0N4R Tau fibrils (Homo sapiens (Human), UniProt P10636) (P10636 other isoform, or with tags, fused parts or gaps): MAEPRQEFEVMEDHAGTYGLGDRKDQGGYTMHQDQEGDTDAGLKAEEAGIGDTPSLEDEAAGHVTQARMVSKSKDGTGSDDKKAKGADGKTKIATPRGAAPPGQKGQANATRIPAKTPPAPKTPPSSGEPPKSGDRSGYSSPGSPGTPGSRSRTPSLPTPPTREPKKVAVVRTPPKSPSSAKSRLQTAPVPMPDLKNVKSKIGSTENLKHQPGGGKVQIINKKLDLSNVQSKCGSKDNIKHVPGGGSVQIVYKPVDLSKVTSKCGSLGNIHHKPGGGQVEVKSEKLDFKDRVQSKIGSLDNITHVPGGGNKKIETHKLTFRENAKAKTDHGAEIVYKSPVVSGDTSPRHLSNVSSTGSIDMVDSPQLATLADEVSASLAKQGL
Sequence of Aβ(1-42) amyloid fibrils (P05067 672-713 limits assumed): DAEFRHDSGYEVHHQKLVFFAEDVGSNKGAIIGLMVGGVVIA

IC50 [1] [nM] | Selectivity for tau relative to Aβ [2] | IC50 (Aβ(1-42) amyloid fibrils) [nM] | binding in the recombinant 4R tau fibrils assay (in words) ([1]; recombinant 4R tau fibrils, [^3H]-THK5117 competition) | Compound | radiochemical purity after exposure to fluorescent light ([3]; 1 min after exposure to fluorescent light) [%] | radiochemical purity after exposure to fluorescent light ([3]; from 10 to 60 min after exposure to fluorescent light)
4 | 2 | 8 |  | COc1ccc2nc(-c3ccc(N4CCCC(O)C4)nc3)sc2c1 (stereo not shown) [Compound 1, 1-[5-(6-Methoxy-1,3-benzothiazol-2-yl)pyridin-2-yl]piperidin-3-ol] |  | 
18 | 1.2 | 22 |  | COc1ccc2nc(-c3ccc(N4CC[C@@H](O)C4)nc3)sc2c1 [Compound 2, (3R)-1-[5-(6-Methoxy-1,3-benzothiazol-2-yl)pyridin-2-yl]pyrrolidin-3-ol] |  | 
11 | 1 | 11 |  | COc1ccc2nc(-c3ccc(N4CC[C@H](O)C4)nc3)sc2c1 [Compound 3, (3S)-1-[5-(6-Methoxy-1,3-benzothiazol-2-yl)pyridin-2-yl]pyrrolidin-3-ol] |  | 
38 | 1.2 | 47 |  | OCC1CN(c2ccc(-c3cc4cc(O)ccc4[nH]3)c(F)n2)C1 [Compound 4] |  | 
7 | 1.6 | 11 |  | OCCC1CN(c2ccc(-c3cc4cc(O)ccc4[nH]3)c(F)n2)C1 [Compound 5] |  | 
1 | 37 | 37 |  | Oc1ccc2[nH]c(-c3ccc(N4CCC[C@@H](O)C4)nc3F)cc2c1 [Compound 6, 2-{2-Fluoro-6-[(3R)-3-hydroxypiperidin-1-yl]pyridin-3-yl}-1H-indol-5-ol] |  | 
9 | 8.9 | 80 |  | Oc1ccc2[nH]c(-c3ccc(N4CCC[C@H](O)C4)nc3F)cc2c1 [Compound 7, 2-{2-Fluoro-6-[(3S)-3-hydroxypiperidin-1-yl]pyridin-3-yl}-1H-indol-5-ol] |  | 
16 |  |  |  | COc1ccc2nc(-c3ccc(N4CC[C@@H](O)[C@H](O)C4)nc3)sc2c1 [Compound 8, (3R,4R)-1-[5-(6-Methoxy-1,3-benzothiazol-2-yl)pyridin-2-yl]piperidine-3,4-diol] |  | 
11 |  |  |  | COc1ccc2nc(-c3ccc(N4CC[C@@H](CO)[C@H](O)C4)nc3)sc2c1 [Compound 11, (3S,4S)-4-(Hydroxymethyl)-1-[5-(6-methoxy-1,3-benzothiazol-2-yl)pyridin-2-yl]piperidin-3-ol] |  | 
40 |  |  |  | COc1ccc2nc(-c3ccc(N4C[C@H](O)C[C@H](O)C4)nc3)sc2c1 [Compound 12, (3R,5S)-1-[5-(6-Methoxy-1,3-benzothiazol-2-yl)pyridin-2-yl]piperidine-3,5-diol] |  | 
9 | 7.2 | 65 |  | COc1ccc2nc(-c3ccc(N4CCC(O)(CO)CC4)nc3)sc2c1 [Compound 14, 4-(Hydroxymethyl)-1-[5-(6-methoxy-1,3-benzothiazol-2-yl)pyridin-2-yl]piperidin-4-ol] |  | 
29 |  |  |  | OC[C@@H]1CCN(c2ccc(-c3cc4cc(O)ccc4[nH]3)c(F)n2)C[C@H]1O [Compound 18, 2-{2-Fluoro-6-[(3S,4S)-3-hydroxy-4-(hydroxymethyl)piperidin-1-yl]pyridin-3-yl}-1H-indol-5-ol] |  | 
40 | 0.2 | 9 |  | OCC1(O)CCN(c2ccc(-c3cc4cc(O)ccc4[nH]3)c(F)n2)CC1 [Compound 21, 2-{2-Fluoro-6-[4-hydroxy-4-(hydroxymethyl)piperidin-1-yl]pyridin-3-yl}-1H-indol-5-ol] |  | 
3 | 1 | 3 |  | OCC1CCN(c2ccc(-c3cc4ccc(O)cc4[nH]3)c(F)n2)CC1 [Compound 22, 2-{2-Fluoro-6-[4-(hydroxymethyl)piperidin-1-yl]pyridin-3-yl}-1H-indol-6-ol] |  | 
6 |  |  |  | COc1ccc2nc(-c3ccc(N4CC[C@@H](O)[C@@H](O)C4)nc3)sc2c1 [Compound 23, (3S,4R)-1-[5-(6-Methoxy-1,3-benzothiazol-2-yl)pyridin-2-yl]piperidine-3,4-diol] |  | 
9 |  |  |  | COc1ccc2nc(-c3ccc(N4CC[C@@H](CO)[C@@H](O)C4)nc3)sc2c1 [Compound 24] |  | 
62 |  |  |  | COc1ccc2nc(-c3ccc(N4C[C@H](O)C[C@@H](O)C4)nc3)sc2c1 [Compound 25, (3R,5R)-1-[5-(6-Methoxy-1,3-benzothiazol-2-yl)pyridin-2-yl]piperidine-3,5-diol] |  | 
48 |  |  |  | OC[C@@H]1CCN(c2ccc(-c3cc4cc(O)ccc4[nH]3)c(F)n2)C[C@@H]1O [Compound 26] |  | 
25 | 1.3 | 32 |  | Oc1ccc2[nH]c(-c3ccc(N4CCC[C@@H](O)C4)nc3)cc2c1 [Compound 27, 2-{6-[(3R)-3-Hydroxypiperidin-1-yl]pyridin-3-yl}-1H-indol-5-ol] |  | 
4 | 2 | 8 |  | O[C@@H]1CCCN(c2ccc(-c3cc4cc(OCCF)ccc4[nH]3)cn2)C1 [Compound 28, (3R)-1-{5-[5-(2-Fluoroethoxy)-1H-indol-2-yl]pyridin-2-yl}piperidin-3-ol] |  | 
14 | 5.7 | 80 |  | O[C@@H]1CCCN(c2ccc(-c3cc4cc(OCCOCCOCCF)ccc4[nH]3)cn2)C1 [Compound 29, (3R)-1-[5-(5-{2-[2-(2-Fluoroethoxy)ethoxy]ethoxy}-1H-indol-2-yl)pyridin-2-yl]piperidin-3-ol] |  | 
150 | 0.6 | 90 |  | Oc1ccc2[nH]c(-c3cnc(N4CCC[C@@H](O)C4)nc3)cc2c1 [Compound 30, 2-{2-[(3R)-3-Hydroxypiperidin-1-yl]pyrimidin-5-yl}-1H-indol-5-ol] |  | 
10 | 1.2 | 12 |  | O[C@@H]1CCCN(c2ncc(-c3cc4cc(OCCF)ccc4[nH]3)cn2)C1 [Compound 31, (3R)-1-{5-[5-(2-Fluoroethoxy)-1H-indol-2-yl]pyrimidin-2-yl}piperidin-3-ol] |  | 
89 | 0.3 | 25 |  | O[C@@H]1CCCN(c2ncc(-c3cc4cc(OCCOCCOCCF)ccc4[nH]3)cn2)C1 [Compound 32, (3R)-1-[5-(5-{2-[2-(2-Fluoroethoxy)ethoxy]ethoxy}-1H-indol-2-yl)pyrimidin-2-yl]piperidin-3-ol] |  | 
6 |  |  |  | COC(=O)C1CN(c2ccc(-c3cc4cc(O)ccc4[nH]3)c(F)n2)C1 [Compound 33, Methyl 1-[6-Fluoro-5-(5-hydroxy-1H-indol-2-yl)pyridin-2-yl]azetidine-3-carboxylate] |  | 
> 1000 |  |  | inactive | Nc1c(F)ccc2cnc(-n3ccc4ccncc43)cc12 [MK-6420, reference compound] |  | 
7 | 4 | 28 |  | CNc1ccc(/C=C/C=C/c2nc3ccc(O)cc3s2)cn1 [PBB3, reference compound] |  | 
 |  |  |  | CNc1ccc(/C=C/C=C/c2nc3ccc(O)cc3s2)cn1 [^11C-PBB3] | 77 | approximately 50%
